Test [1] deals with Death-associated protein kinase 1 (Homo sapiens) (UniProt P53355). The experiment in a line: Inhibition of human DAPK1 at 500 nM by HotSpot assay relative to control.
In test [2] the target is Ephrin type-A receptor 2 (Homo sapiens) (UniProt P29317). The experiment in a line: Inhibition of human EPHA2 at 500 nM by HotSpot assay relative to control.
The target in test [3] is T1, Serine/threonine-protein kinase 3 (Homo sapiens) (UniProt Q13188).
T1 sequence (whole entry): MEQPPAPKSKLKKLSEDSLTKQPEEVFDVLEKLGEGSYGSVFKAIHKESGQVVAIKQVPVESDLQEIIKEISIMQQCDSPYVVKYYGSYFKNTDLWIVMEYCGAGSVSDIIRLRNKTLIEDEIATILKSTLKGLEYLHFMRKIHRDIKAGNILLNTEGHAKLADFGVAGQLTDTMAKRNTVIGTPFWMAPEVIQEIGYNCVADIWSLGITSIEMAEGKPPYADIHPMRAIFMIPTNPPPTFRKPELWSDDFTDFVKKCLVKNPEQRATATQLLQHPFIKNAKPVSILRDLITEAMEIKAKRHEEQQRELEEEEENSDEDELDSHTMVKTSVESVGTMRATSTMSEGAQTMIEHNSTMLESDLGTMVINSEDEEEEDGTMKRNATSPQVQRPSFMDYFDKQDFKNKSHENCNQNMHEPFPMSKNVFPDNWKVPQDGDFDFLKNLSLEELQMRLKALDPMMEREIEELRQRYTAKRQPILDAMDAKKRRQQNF
Kind of test: Inhibition of human STK3 at 500 nM by HotSpot assay relative to control.

The target in test [4] is SRSF protein kinase 2 (Homo sapiens) (UniProt P78362). The experiment in a line: Inhibition of human SRPK2 at 500 nM by HotSpot assay relative to control.
The target in test [5] is T2, Mitogen-activated protein kinase kinase kinase 3 (Homo sapiens) (UniProt Q99759).
T2 sequence (whole entry): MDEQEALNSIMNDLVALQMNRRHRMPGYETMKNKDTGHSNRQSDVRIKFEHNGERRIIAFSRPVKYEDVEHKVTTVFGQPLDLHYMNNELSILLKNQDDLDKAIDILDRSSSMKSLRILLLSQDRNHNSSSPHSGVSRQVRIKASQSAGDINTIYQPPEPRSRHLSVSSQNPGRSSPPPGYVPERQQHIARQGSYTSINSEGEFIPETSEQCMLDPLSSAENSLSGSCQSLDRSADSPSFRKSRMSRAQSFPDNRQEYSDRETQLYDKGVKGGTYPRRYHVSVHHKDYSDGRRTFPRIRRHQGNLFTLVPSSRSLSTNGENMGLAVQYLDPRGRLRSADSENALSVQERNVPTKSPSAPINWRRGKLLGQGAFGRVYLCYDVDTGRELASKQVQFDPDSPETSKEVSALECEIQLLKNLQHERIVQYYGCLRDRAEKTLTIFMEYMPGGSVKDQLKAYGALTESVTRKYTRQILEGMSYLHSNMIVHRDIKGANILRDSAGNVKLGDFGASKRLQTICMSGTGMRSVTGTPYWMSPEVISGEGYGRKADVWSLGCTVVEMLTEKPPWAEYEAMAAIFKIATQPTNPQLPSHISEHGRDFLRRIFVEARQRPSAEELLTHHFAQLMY
The experiment in a line: Inhibition of human MEKK3 at 500 nM by HotSpot assay relative to control.

In test [6] the target is Phosphorylase b kinase gamma catalytic chain, skeletal muscle/heart isoform (Homo sapiens) (UniProt Q16816). Kind of test: Inhibition of human PHKg1 at 500 nM by HotSpot assay relative to control.
For test [7], the target named is CDK9/cyclin T1 (Homo sapiens) (UniProt O60563+P50750). Kind of test: Inhibition of human CDK9/cyclin T1 at 500 nM by HotSpot assay relative to control. It counts as protein-complex assay.
Test [8] concerns the target Dual specificity tyrosine-phosphorylation-regulated kinase 1B (Homo sapiens) (UniProt Q9Y463). Kind of test: Inhibition of human DYRK1B at 500 nM by HotSpot assay relative to control.
Test [9] addresses Protein kinase C gamma type (Homo sapiens) (UniProt P05129). The experiment in a line: Inhibition of human PKCg at 500 nM by HotSpot assay relative to control.
The target of test [10] is G protein-coupled receptor kinase 4 (Homo sapiens) (UniProt P32298). The experiment in a line: Inhibition of human GRK4 at 500 nM by HotSpot assay relative to control.
Test [11] concerns the target Fibroblast growth factor receptor 1 (Homo sapiens) (UniProt P11362). The experiment in a line: Inhibition of human FGFR1 at 500 nM by HotSpot assay relative to control.
Test [12] has as its target MAP kinase-interacting serine/threonine-protein kinase 1 (Homo sapiens) (UniProt Q9BUB5). The experiment in a line: Inhibition of human MNK1 at 500 nM by HotSpot assay relative to control.
The target in test [13] is T3, Phosphorylase b kinase gamma catalytic chain, liver/testis isoform (Homo sapiens) (UniProt P15735).
T3 sequence (whole entry): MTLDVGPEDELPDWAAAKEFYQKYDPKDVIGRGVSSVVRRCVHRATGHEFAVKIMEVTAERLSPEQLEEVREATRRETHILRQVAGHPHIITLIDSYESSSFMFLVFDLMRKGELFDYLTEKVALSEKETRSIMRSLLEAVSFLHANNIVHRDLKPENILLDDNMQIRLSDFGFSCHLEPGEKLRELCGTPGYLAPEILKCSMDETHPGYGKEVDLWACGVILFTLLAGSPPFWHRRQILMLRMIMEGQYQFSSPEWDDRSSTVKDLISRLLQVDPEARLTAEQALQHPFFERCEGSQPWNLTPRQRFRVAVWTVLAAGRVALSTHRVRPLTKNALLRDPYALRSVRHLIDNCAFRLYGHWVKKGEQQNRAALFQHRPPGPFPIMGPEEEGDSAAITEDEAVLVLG
Kind of test: Inhibition of human PHKg2 at 500 nM by HotSpot assay relative to control.

Test [14] addresses Angiopoietin-1 receptor (Homo sapiens) (UniProt Q02763). Kind of test: Inhibition of human TEK at 500 nM by HotSpot assay relative to control.
Test [15] addresses MAP/microtubule affinity-regulating kinase 3 (Homo sapiens) (UniProt P27448). The experiment in a line: Inhibition of human MARK3 at 500 nM by HotSpot assay relative to control.

Structures are written as SMILES.

Chain of Ephrin type-A receptor 2 (Homo sapiens) (P29317 whole entry): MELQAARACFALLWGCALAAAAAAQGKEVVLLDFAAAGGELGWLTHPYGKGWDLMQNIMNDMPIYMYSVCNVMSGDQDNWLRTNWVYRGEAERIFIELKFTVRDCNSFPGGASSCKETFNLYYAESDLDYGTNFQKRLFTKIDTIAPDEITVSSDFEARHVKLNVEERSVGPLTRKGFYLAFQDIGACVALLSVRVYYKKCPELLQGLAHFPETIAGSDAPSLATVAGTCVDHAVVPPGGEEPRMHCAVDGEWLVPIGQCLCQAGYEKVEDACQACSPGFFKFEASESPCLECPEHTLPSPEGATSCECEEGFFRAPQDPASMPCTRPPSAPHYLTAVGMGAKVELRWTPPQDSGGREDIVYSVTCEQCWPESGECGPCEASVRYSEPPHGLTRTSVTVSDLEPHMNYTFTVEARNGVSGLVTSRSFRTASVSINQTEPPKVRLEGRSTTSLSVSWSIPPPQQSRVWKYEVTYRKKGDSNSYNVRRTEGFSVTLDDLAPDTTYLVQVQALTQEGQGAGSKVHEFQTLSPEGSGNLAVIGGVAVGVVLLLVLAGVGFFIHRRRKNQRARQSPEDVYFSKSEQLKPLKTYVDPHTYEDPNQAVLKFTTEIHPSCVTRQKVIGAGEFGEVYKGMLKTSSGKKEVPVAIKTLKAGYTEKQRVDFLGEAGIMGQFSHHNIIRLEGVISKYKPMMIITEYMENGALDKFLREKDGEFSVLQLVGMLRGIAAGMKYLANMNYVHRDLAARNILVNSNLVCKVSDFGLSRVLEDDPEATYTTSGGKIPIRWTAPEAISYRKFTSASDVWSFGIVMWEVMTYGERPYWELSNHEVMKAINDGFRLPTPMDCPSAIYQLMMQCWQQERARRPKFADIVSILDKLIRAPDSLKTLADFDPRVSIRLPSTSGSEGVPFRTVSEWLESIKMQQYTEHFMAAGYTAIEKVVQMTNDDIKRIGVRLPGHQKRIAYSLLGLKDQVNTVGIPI
Chain of MAP/microtubule affinity-regulating kinase 3 (Homo sapiens) (P27448 whole entry, looked up): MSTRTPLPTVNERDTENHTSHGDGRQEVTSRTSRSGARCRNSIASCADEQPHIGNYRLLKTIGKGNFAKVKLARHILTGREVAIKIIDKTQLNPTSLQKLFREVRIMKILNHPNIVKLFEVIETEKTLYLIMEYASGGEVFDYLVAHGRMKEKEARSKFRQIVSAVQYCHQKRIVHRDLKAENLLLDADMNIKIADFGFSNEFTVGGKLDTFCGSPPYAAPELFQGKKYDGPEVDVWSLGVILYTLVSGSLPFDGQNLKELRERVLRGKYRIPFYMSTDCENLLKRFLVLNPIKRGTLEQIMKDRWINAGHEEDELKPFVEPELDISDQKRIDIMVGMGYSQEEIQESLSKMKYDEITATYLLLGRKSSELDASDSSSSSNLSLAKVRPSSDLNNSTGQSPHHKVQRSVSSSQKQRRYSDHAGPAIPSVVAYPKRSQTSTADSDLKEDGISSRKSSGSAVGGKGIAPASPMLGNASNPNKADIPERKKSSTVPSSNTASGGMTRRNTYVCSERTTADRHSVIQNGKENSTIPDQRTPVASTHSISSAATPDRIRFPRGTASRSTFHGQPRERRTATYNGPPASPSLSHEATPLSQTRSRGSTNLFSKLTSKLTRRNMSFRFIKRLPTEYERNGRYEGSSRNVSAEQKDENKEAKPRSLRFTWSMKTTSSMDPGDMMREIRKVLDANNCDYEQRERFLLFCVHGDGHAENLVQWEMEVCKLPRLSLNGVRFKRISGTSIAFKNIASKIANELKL
Chain of G protein-coupled receptor kinase 4 (Homo sapiens) (P32298 whole entry, looked up): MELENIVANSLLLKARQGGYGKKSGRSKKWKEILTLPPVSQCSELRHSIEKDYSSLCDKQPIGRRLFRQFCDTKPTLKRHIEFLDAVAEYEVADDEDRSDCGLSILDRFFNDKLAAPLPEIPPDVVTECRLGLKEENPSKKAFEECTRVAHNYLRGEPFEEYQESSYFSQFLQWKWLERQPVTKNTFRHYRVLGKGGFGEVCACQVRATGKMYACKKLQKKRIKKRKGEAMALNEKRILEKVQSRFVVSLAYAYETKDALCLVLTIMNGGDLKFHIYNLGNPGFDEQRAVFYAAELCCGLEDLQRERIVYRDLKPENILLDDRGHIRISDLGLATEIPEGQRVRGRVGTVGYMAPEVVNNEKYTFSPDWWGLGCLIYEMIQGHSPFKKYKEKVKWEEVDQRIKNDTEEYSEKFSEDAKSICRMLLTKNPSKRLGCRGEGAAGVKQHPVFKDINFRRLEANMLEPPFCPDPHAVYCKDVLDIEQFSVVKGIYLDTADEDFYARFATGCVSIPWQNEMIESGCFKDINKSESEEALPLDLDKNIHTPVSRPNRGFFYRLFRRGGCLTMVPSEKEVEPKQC
Chain of Dual specificity tyrosine-phosphorylation-regulated kinase 1B (Homo sapiens) (Q9Y463 whole entry, looked up): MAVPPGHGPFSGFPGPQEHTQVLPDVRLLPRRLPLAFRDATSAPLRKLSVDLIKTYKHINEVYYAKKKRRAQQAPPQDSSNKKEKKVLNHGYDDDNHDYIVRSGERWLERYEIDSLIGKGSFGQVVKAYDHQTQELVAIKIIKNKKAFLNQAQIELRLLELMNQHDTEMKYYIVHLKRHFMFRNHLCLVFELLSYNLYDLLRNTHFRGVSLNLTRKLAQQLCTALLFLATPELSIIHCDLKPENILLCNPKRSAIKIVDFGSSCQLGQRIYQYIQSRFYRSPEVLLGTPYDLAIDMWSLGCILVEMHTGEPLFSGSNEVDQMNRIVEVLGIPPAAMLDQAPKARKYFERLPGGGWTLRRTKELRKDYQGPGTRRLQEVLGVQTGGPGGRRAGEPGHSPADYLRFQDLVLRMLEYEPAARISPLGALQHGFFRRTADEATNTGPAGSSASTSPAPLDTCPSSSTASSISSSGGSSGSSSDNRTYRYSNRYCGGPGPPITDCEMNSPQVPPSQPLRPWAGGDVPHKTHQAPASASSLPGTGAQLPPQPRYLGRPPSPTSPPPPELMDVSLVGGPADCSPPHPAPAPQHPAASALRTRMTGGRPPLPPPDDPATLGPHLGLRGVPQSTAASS
Chain of Fibroblast growth factor receptor 1 (Homo sapiens) (P11362 22-822 limits assumed): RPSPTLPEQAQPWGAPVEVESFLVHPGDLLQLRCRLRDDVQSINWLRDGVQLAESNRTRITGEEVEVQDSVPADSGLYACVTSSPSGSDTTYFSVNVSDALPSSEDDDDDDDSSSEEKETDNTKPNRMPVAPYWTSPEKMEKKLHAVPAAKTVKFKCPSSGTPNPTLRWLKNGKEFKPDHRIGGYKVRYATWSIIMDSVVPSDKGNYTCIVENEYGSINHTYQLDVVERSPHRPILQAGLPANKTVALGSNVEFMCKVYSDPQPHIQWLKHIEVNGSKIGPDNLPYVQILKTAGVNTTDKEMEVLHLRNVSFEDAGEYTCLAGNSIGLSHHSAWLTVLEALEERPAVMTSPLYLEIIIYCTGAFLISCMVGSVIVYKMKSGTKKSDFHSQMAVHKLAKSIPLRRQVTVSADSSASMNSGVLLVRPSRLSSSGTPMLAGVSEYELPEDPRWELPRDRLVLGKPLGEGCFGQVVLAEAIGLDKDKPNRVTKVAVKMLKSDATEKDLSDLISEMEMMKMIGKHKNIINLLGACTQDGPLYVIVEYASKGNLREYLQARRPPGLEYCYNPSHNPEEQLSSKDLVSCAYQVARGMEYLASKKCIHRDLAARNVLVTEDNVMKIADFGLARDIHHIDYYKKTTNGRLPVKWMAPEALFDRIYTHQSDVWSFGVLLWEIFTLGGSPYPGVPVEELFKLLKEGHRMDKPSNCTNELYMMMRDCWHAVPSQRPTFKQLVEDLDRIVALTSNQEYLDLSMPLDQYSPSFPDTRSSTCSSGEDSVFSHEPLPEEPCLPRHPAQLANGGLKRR
Chain of SRSF protein kinase 2 (Homo sapiens) (P78362 whole entry, looked up): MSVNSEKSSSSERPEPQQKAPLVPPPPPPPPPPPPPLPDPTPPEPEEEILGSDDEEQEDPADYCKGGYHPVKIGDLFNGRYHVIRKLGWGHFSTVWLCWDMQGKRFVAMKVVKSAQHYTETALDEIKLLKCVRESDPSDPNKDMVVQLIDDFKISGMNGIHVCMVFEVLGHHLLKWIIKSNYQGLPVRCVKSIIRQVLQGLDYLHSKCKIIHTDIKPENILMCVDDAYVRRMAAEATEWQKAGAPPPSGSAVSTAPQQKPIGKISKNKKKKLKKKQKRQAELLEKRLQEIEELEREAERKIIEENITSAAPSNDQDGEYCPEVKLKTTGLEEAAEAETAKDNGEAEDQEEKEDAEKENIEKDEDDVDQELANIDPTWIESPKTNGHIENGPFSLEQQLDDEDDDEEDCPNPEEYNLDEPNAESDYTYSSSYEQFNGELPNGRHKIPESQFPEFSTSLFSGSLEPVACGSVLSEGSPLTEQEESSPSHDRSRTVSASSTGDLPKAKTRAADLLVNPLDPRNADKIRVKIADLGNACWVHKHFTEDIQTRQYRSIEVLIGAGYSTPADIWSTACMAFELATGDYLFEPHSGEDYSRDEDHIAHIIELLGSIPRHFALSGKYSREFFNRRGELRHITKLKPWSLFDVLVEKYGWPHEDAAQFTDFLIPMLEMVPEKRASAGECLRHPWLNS
Chain of MAP kinase-interacting serine/threonine-protein kinase 1 (Homo sapiens) (Q9BUB5 whole entry, looked up, canonical isoform): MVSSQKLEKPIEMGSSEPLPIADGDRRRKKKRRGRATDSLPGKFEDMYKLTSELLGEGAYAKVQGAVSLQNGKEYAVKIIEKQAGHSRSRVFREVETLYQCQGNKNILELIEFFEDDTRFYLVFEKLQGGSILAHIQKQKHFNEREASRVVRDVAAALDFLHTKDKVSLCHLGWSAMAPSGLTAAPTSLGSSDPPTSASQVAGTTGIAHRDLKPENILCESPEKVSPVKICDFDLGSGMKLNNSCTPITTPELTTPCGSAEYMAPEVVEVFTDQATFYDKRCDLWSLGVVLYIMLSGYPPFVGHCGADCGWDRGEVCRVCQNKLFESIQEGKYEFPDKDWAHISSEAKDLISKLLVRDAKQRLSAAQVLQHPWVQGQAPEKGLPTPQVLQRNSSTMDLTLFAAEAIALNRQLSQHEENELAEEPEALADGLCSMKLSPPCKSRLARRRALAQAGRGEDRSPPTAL

For the molecule `Oc1n[nH]c2nnc(-c3c(-c4ccccc4)nn4ccccc34)cc12`, the inhibition (as a rule, the drop in the measured response relative to a control, in per cent) in [1] was 6.45%; in [2] it was -0.91%; in test [3], 0.75%; in test [4], 0.47%; in [5] it was -4.26%; in test [6], -1.18%. For the same molecule, the inhibition was 3.66% in test [7]; -1.78% in [8]; -2.44% in test [9]; -1.17% in [10]; -1.96% in test [11]; 0.89% in test [12]. For the same molecule, the inhibition in test [13] was 8.79%; in test [14], 4.05%; in test [15], -2.48%.

Regarding `Nc1n[nH]c2nnc(-c3c(-c4ccccc4)nn4ccccc34)cc12`, the inhibition in test [1] was 4.15%; in [2], 1.69%; in test [3] it was -2.01%; in [4], 26.2%; in test [5], -9.53%; in test [6] it was -0.96%. In addition, the inhibition was 2.74% in test [7]; -0.86% in test [8]; -2.64% in test [9]; -2.71% in test [10]; 5.28% in test [11]; 1.48% in [12]. For the same molecule, the inhibition came to 17.4% in [13], 3.45% in test [14] and 0.66% in test [15].

(Values after ChEMBL document CHEMBL5653615 (J Biol Chem, 2013).)
